The record followed here is ChEMBL document CHEMBL5143757, “Combination of Cyclin-Dependent Kinase 4 Inhibitors and Androgen Receptor Inhibitors as Cancer Therapy” (2022).

Molecules are shown by their SMILES.

Assay type in all cases: functional
Common to all, as to conditions: 96 h, read-out: GI

Assay [1] is described as follows: Growth inhibition of human LNCaP/AR cells assessed as decrease in tumor spheroid growth at 100 nM with media replenishment twice per week along with 3 to 4-day interval compound relative to control.
A short description of assay [2]: Growth inhibition of human LNCaP/AR cells assessed as decrease in tumor spheroid growth at 300 nM with media replenishment twice per week along with 3 to 4-day interval compound relative to control.
Assay [3] is described as follows: Growth inhibition of human LNCaP/AR cells assessed as decrease in tumor spheroid growth at 1000 nM with media replenishment twice per week along with 3 to 4-day interval compound relative to control.
A short description of assay [4]: Growth inhibition of human LNCaP/AR cells assessed as decrease in tumor spheroid growth at 300 nM with media replenishment twice per week along with 3 to 4-day interval compound in presence of enzalutamide relative to control.
A short description of assay [5]: Growth inhibition of human LNCaP/AR cells assessed as decrease in tumor spheroid growth at 30 nM with media replenishment twice per week along with 3 to 4-day interval compound relative to control.
A short description of assay [6]: Growth inhibition of human LNCaP/AR cells assessed as decrease in tumor spheroid growth at 30 nM with media replenishment twice per week along with 3 to 4-day interval compound in presence of enzalutamide relative to control.
Assay [7] in a line: Growth inhibition of human LNCaP/AR cells assessed as decrease in tumor spheroid growth at 1000 nM with media replenishment twice per week along with 3 to 4-day interval compound in presence of palbociclib relative to control.
Assay [8] in a line: Growth inhibition of human LNCaP/AR cells assessed as decrease in tumor spheroid growth at 1000 nM with media replenishment twice per week along with 3 to 4-day interval compound in presence of Compound A relative to control.

On to `CC(C)n1c(C(C)(C)O)nc2c(F)cc(-c3nc(N[C@@H]4CCOC[C@H]4O)ncc3Cl)cc21` [ATIRMOCICLIB], for which, in assay [1], the inhibition of growth at 0.1 µM was 27%. Also, the inhibition of growth at 0.3 µM came out at 38% in assay [2] and 70% in assay [4]. Besides, the inhibition of growth at 1 µM in assay [3] is 53%.
Consider `CC(=O)c1c(C)c2cnc(Nc3ccc(N4CCNCC4)cn3)nc2n(C2CCCC2)c1=O` [PALBOCICLIB], for which the inhibition of growth at 0.1 µM in assay [1] was 24%. The inhibition of growth at 0.03 µM was found to be 5% in assay [5] and 47% in assay [6].
As to `CNC(=O)c1ccc(N2C(=S)N(c3ccc(C#N)c(C(F)(F)F)c3)C(=O)C2(C)C)cc1F` [ENZALUTAMIDE], the results for the inhibition of growth at 1 µM in assay [3], in assay [7] and in assay [8] were 46%, 47% and 70%, respectively.
